Laboratory results from US5342850A, “Thiazolidine-2,4-dione derivatives, their salts and their preparation processes” (Kyorin Pharmaceutical Co., Ltd., priority 1991, dated 1994).

Legend:
blood glucose [1] = experiment: Improvement of glucose tolerance in genetically obese mice (OGTT); type: in vivo, Genetically obese mice (CS57BL ob/ob mice); conditions: fasted 18 hours, 2 g/kg glucose orally, blood at 0, 30, 60, 120 min
Description: Improvement of glucose tolerance in genetically obese mice
Genetically obese mice (CS57BL ob/ob mice) were orally administered with the compound of Example 23 once daily for 5 days at 10, 30 or 100 mg/kg/day, respectively. They were fasted for 18 hours and then 2 g/kg of glucose was orally administered. Blood samples were collected from the tail vein 0, 30, 60 and 120 minutes after the administration of glucose for the determination of blood glucose (Table 2).

[2] = tested on: sorbitol content in nerve; experiment: Inhibition on sorbitol accumulation in nerve of diabetic rats; type: in vivo; conditions: Rattus norvegicus, po, 336 h, streptozotocin rats, 4, 16 or 64 mg/kg/day p.o. once daily 2 weeks
Description: (§1) Inhibition on sorbitol accumulation in tissues of diabetic rats
(§2) After diabetic rats were prepared by injecting streptozotocin, they were orally administered with the compound of Example 23 once daily 2 weeks at 4, 16 or 64 mg/kg/day, respectively. The sorbitol content in nerve and retina was determined to calculate ED50 value (Table 4).

blood glucose [3] = experiment: Enhancement of insulin sensitivity in rats; type: in vivo; conditions: 10 mg/kg/day p.o. once daily for 5 days; fasted 18 hours; insulin 0.1 unit/kg i.p.; n=5; *P < 0.01
Description: Blood samples were collected from the tail vein 0 and 1 hour after the injection of insulin for the determination of blood glucose (Table 1).

[4] = tested on: sorbitol content in retina; experiment: Inhibition on sorbitol accumulation in retina of diabetic rats; type: in vivo; conditions: Rattus norvegicus, po, 336 h, streptozotocin rats, 4, 16 or 64 mg/kg/day p.o. once daily 2 weeks
Description: as §1, §2

[5] = target: T1, aldose reductase extracted from rat lens (Rattus norvegicus, UniProt P07943); experiment: Inhibition of aldose reductase in vitro; type: biochemical; conditions: method of Hyman and Kinoshita
T1 construct: aldose reductase extracted from rat lens; from tissue; host or cells: rat lens
Source text: Inhibition of aldose reductase in vitro
According to the method of Hyman and Kinoshita (J. Biol. Chem., 240, 877, 1965), inhibitory activity of the compound of Example 23 on aldose reductase extracted from rat lens was investigated. As a result, the following IC50 value was obtained (Table 3).

IC50 [5]: 90 nM
Compound: O=C1NC(=O)C(c2ccc(NC(=O)c3ccc(Cl)cc3Cl)cc2)S1 (stereo not shown) [Example 23]
OGTT (% of control) (blood glucose [1]; 10 mg/kg/day p.o. once daily for 5 days): 93.5 % of control | OGTT (% of control) (blood glucose [1]; 30 mg/kg/day p.o. once daily for 5 days): 89.2 % of control | OGTT (% of control) (blood glucose [1]; 100 mg/kg/day p.o. once daily for 5 days): 74.1 % of control | ED50 [2]: 14.5 mg/kg | 0 hour value - 1 hour value (blood glucose) (blood glucose [3]): 19.4 ± 1.5 mg % | ED50 [4]: 26.5 mg/kg
